According to patent US20180008587A1, “THIOHYDANTOIN ANDROGEN RECEPTOR ANTAGONISTS FOR THE TREATMENT OF CANCER” (Jaressen Pharmaceutica NV, priority 2016, published 2018):
Numbering of substitutions follows the chain as printed. Read-outs that look alike come from different tables or passages of the source.

How the values were obtained:
Format in all cases: cell-based
[1] = molecular target: T1, wild-type Androgen Receptor (AR-wt) (Homo sapiens, UniProt P10275); assay: LNCaP-AR-wt AG reporter assay (ARE firefly luciferase, agonist mode); conditions: for Emax: read-out: LNCaP-AR-wt AG MAX % Stim
T1 construct: expressed in transfected cells; host or cells: LNCaP (LNCaP AR (cs))
T1 sequence (P10275 1-920): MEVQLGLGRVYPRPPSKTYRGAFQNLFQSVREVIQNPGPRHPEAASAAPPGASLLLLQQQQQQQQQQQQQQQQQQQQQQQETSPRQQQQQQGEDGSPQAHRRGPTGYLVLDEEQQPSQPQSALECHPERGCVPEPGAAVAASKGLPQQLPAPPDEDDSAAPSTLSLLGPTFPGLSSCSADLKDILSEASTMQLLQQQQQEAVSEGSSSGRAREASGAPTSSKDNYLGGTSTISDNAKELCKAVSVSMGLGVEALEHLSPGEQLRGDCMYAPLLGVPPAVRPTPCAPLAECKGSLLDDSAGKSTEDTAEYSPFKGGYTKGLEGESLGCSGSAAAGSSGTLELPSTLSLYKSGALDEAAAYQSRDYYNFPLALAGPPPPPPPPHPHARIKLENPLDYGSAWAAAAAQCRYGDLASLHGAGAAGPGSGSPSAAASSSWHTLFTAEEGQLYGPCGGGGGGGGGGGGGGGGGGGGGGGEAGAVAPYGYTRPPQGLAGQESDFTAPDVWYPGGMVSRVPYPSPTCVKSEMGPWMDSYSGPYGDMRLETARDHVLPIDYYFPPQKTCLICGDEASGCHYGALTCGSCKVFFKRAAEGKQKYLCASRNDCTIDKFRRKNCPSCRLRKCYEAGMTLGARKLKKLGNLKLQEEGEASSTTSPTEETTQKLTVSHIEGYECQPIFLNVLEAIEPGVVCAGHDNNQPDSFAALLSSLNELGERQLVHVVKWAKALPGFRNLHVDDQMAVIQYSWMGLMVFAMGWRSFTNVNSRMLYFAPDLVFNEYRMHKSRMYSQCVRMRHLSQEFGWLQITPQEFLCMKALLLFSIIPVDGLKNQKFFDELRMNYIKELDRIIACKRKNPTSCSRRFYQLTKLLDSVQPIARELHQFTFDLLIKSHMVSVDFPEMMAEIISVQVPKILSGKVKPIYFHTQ
Method in brief: (§1)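 Puromycin-selected pooled LNCaP populations expressing AR-wt or AR-F876L are seeded in CSS medium and treated with compound for 20-24 h at 37 °C. For antagonist testing, agonist is added at 400 pM (WT) or 600 pM (F876L). Potency values derive from least-squares fitting of luminescence RLU.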

[2] = molecular target: T2, F876L mutant Androgen Receptor (AR-F876L) (Homo sapiens, UniProt P10275, F877L); assay: LNCaP-AR-F876L AG reporter assay (ARE firefly luciferase, agonist mode); conditions: for Emax: read-out: LNCaP-AR-F876L AG MAX % Stim
T2 construct: expressed in transfected cells; host or cells: LNCaP (LNCaP F876L)
T2 sequence (P10275 1-920 F877L): T1 sequence (P10275 1-920) with F877L
Method in brief: as §1

[3] = molecular target: T1, wild-type Androgen Receptor (AR-wt); assay: LNCaP-AR-wt ANT reporter assay (ARE firefly luciferase, antagonist mode); conditions: for IC50: antagonist mode, 400 pM R-1881 challenge, −Log10(IC50 [Molar]), read-out: LNCaP-AR-wt ANT pIC50 (converted); for Emax: read-out: LNCaP-AR-wt ANT MAX % Inh
Method in brief: (§2)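 Cells: stable LNCaP pools, AR-wt or AR-F876L, in charcoal-stripped serum. Agonist challenge for antagonist mode was 400 pM (WT) and 600 pM (F876L). Luminescence was measured after 20-24 h incubation.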

[4] = molecular target: T2, F876L mutant Androgen Receptor (AR-F876L); assay: LNCaP-AR-F876L ANT reporter assay (ARE firefly luciferase, antagonist mode); conditions: for Emax: read-out: LNCaP-AR-F876L ANT MAX % Inh
Method in brief: as §2

[5] = agonist mode, −Log10(EC50 [Molar]), read-out: LNCaP-AR-wt AG pEC50 (converted)
[6] = maximum % stimulation (agonist response) over tested concentration range
[7] = agonist mode, −Log10(EC50 [Molar]), read-out: LNCaP-AR-F876L AG pEC50 (converted)
[8] = maximum % inhibition of R1881 control response over tested concentration range
[9] = read-out: LNCaP-AR-F876L ANT pIC50 (converted)

| EC50 [1, 5] | Emax [1, 6] | EC50 [2, 7] | Emax [2, 6] | Emax [3, 8] | Emax [4, 8] | Compound | IC50 [3] | IC50 [4, 9] | EC50 [1] | Emax [1] | EC50 [2] | Emax [2] | Emax [3] | IC50 [4] | Emax [4] |
| --- | --- | --- | --- | --- | --- | --- | --- | --- | --- | --- | --- | --- | --- | --- | --- |
| > 15100 nM | 1.1% | > 15100 nM | 0.7% | 100% | 100% | CCN1CCC(Oc2ccc(N3C(=S)N(c4cnc(C#N)c(C)c4)C(=O)C34CCC4)cc2)CC1 [Cpd 61, 5-[8-[4-[(1-ethyl-4-piperidyl)oxy]phenyl]-5-oxo-7-thioxo-6,8-diazaspiro[3.4]octan-6-yl]-3-methyl-pyridine-2-carbonitrile] | 1260 nM | 380 nM |  |  |  |  |  |  |  |
|  |  |  |  |  |  | Cc1cc(N2C(=O)C3(CCC3)N(c3ccc(Oc4ccncn4)cc3)C2=S)cnc1C#N [Cpd 62, 3-methyl-5-[5-oxo-8-(4-pyrimidin-4-yloxyphenyl)-7-thioxo-6,8-diazaspiro[3.4]octan-6-yl]pyridine-2-carbonitrile] | 339 nM |  | > 15100 nM | 0.8% | > 15100 nM | 0.4% | 98.8% | 91.2 nM | 99.7% |
|  |  |  |  |  |  | Cc1cc(N2C(=O)C3(CCC3)N(c3ccc(C(=O)Nc4nccs4)c(F)c3)C2=S)cnc1C#N [Cpd 63, 4-[6-(6-cyano-5-methyl-3-pyridyl)-5-oxo-7-thioxo-6,8-diazaspiro[3.4]octan-8-yl]-2-fluoro-N-thiazol-2-yl-benzamide] | 776 nM | 219 nM | > 15100 nM | 0.7% | > 15100 nM | 0.3% | 68.6% |  | 83.4% |
| > 15100 nM | 1.2% | > 15100 nM | 0.7% | 98.9% | 98.1% | CN(CCCNC(=O)c1ccc(N2C(=S)N(c3cnc(C#N)c(C(F)(F)F)c3)C(=O)C23CCC3)cc1F)C1CCCC1 [Cpd 64, 4-[6-[6-cyano-5-(trifluoromethyl)-3-pyridyl]-5-oxo-7-thioxo-6,8-diazaspiro[3.4]octan-8-yl]-N-[3-[cyclopentyl(methyl)amino]propyl]-2-fluoro-benzamide] | 282 nM | 174 nM |  |  |  |  |  |  |  |
| > 15100 nM | 0.6% | > 15100 nM | 0.1% | 98.9% | 96.2% | N#Cc1ncc(N2C(=O)C3(CCC3)N(c3ccc(OCCN4CCCC4)c(F)c3)C2=S)cc1C(F)(F)F [Cpd 66, 5-[8-[3-fluoro-4-(2-pyrrolidin-1-ylethoxy)phenyl]-5-oxo-7-thioxo-6,8-diazaspiro[3.4]octan-6-yl]-3-(trifluoromethyl)pyridine-2-carbonitrile] | 1150 nM | 603 nM |  |  |  |  |  |  |  |
|  |  |  |  |  |  | N#Cc1ncc(N2C(=O)C3(CCC3)N(c3ccc(C(=O)NCc4cccnc4)c(F)c3)C2=S)cc1C(F)(F)F [Cpd 67, 4-[6-[6-cyano-5-(trifluoromethyl)-3-pyridyl]-5-oxo-7-thioxo-6,8-diazaspiro[3.4]octan-8-yl]-2-fluoro-N-(3-pyridylmethyl)benzamide] | 1260 nM | 407 nM | > 15100 nM | 1.5% | > 15100 nM | 0.8% | 99.2% |  | 97.4% |
|  |  |  |  |  |  | CCCNC(=O)c1ccc(N2C(=S)N(c3cnc(C#N)c(C(F)(F)F)c3)C(=O)C23CCC3)cc1F [Cpd 68, 4-[6-[6-cyano-5-(trifluoromethyl)-3-pyridyl]-5-oxo-7-thioxo-6,8-diazaspiro[3.4]octan-8-yl]-2-fluoro-N-propyl-benzamide] | 589 nM | 427 nM | > 15100 nM | 0.2% | > 15100 nM | 0.9% | 96.7% |  | 98% |
| > 15100 nM | 0.9% | > 15100 nM | 0.7% | 102% | 99.1% | COc1ccc(N2C(=S)N(c3cnc(C#N)c(C)c3)C(=O)C23CCC3)cc1 [Cpd 69, 5-[8-(4-methoxyphenyl)-5-oxo-7-thioxo-6,8-diazaspiro[3.4]octan-6-yl]-3-methyl-pyridine-2-carbonitrile] | 282 nM | 132 nM |  |  |  |  |  |  |  |
|  |  |  |  |  |  | N#Cc1ncc(N2C(=O)C3(CCC3)N(c3ccccc3)C2=S)cc1C(F)(F)F [Cpd 70, 5-(5-oxo-8-phenyl-7-thioxo-6,8-diazaspiro[3.4]octan-6-yl)-3-(trifluoromethyl)pyridine-2-carbonitrile] | 741 nM | 513 nM | > 15100 nM | 0.3% | > 15100 nM | 0.9% | 99.2% |  | 99.5% |
|  |  |  |  |  |  | N#Cc1ncc(N2C(=O)C3(CCC3)N(c3ccc(Oc4ccncn4)cc3)C2=S)cc1C(F)(F)F [Cpd 71, 5-[5-oxo-8-(4-pyrimidin-4-yloxyphenyl)-7-thioxo-6,8-diazaspiro[3.4]octan-6-yl]-3-(trifluoromethyl)pyridine-2-carbonitrile] | 214 nM | 251 nM | > 15100 nM | 0.5% | > 15100 nM | 0.9% | 98.8% |  | 97.5% |
|  |  |  |  |  |  | N#Cc1ncc(N2C(=O)C3(CCC3)N(c3ccc(C(=O)NCCCN4CCOCC4)c(F)c3)C2=S)cc1C(F)(F)F [Cpd 72, 4-[6-[6-cyano-5-(trifluoromethyl)-3-pyridyl]-5-oxo-7-thioxo-6,8-diazaspiro[3.4]octan-8-yl]-2-fluoro-N-(3-morpholinopropyl)benzamide] | 251 nM | 102 nM | > 15100 nM | 0.3% | > 15100 nM | 0.6% | 102% |  | 101% |
| > 15100 nM | 1.9% | > 15100 nM | 0.6% | 99.5% | 99.1% | N#Cc1ncc(N2C(=O)C3(CCC3)N(c3ccc(C(=O)Nc4ccccc4)c(F)c3)C2=S)cc1C(F)(F)F [Cpd 73, 4-[6-[6-cyano-5-(trifluoromethyl)-3-pyridyl]-5-oxo-7-thioxo-6,8-diazaspiro[3.4]octan-8-yl]-2-fluoro-N-phenyl-benzamide] | 759 nM | 417 nM |  |  |  |  |  |  |  |
